Values of other authors as cited in patent US6586576B2, “Preparation method of azithromycin hydrates” (Teva Pharmaceutical Industries LTD, priority 2000, dated 2003).
Read-outs that look alike come from different tables or passages of the source. Blank lines part the entries; values can stand above or below the molecule they belong to.

Columns and labels:
[1] = crystal/hydrate form, per EP 298 650 and CN 1,093,370

stability under acidic conditions: not stable
SMILES: CC[C@H]1OC(=O)C(C)C(OC2CC(C)(OC)C(O)C(C)O2)C(C)C(OC2OC(C)CC(N(C)C)C2O)C(C)(O)CC(C)CN(C)C(C)C(O)C1(C)O (stereo partly drawn) [azithromycin, 9-deoxo-9a-aza-9a-methyl-9a-homoerythromycin A]

SMILES: CC[C@H]1OC(=O)[C@H](C)[C@@H](O[C@H]2C[C@@](C)(OC)[C@@H](O)[C@H](C)O2)[C@H](C)[C@@H](O[C@@H]2O[C@H](C)C[C@H](N(C)C)[C@H]2O)[C@](C)(O)C[C@@H](C)CN(C)[C@H](C)[C@@H](O)[C@]1(C)O [azithromycin dihydrate]
hygroscopic nature ([1]; dihydrate): less hygroscopic than the previously known azithromycin monohydrate

hygroscopic nature ([1]; monohydrate): hygroscopic
SMILES: CC[C@H]1OC(=O)[C@H](C)[C@@H](O[C@H]2C[C@@](C)(OC)[C@@H](O)[C@H](C)O2)[C@H](C)[C@@H](O[C@@H]2O[C@H](C)C[C@H](N(C)C)[C@H]2O)[C@](C)(O)C[C@@H](C)CN(C)[C@H](C)[C@@H](O)[C@]1(C)O [azithromycin monohydrate]
